Laboratory results: patent publication US10857110B2, “Antibacterial compounds” (CONSEJO NACIONAL DE INVESTIGACIONES CIENTÍFICAS Y TÉCNICAS …, priority 2016, dated 2020)
In brackets after ≈: the same amount, converted by molar mass. Read-outs that look alike come from different tables or passages of the source.

Experiments:
B. cenacepacia (FQC2524) = test: MIC/MBC antibiotic sensitivity (CLSI); type: cell-based, B. cenocepacia; conditions: Burkholderia cenocepacia
Description: (§1) The new compounds of the invention were synthesized following the general method of preparation (Tetrahedron, 2001, 57, 1671-1675), from the reaction between an intermediary compound of the acyl thiourea and HgCl2 in presence of trimethylamine. The products were adequately characterized regarding its chemistry. The antibacterial activity of the new compounds was assayed against two Gram-positive reference strains: Staphylococcus aureus (ATCC6538) and Bacillus cereus (ATCC10876), a fermenting Gram-negative strain: Escherichia coli (ATCC25922), and 26 non-fermenting Gram-negative isolates, including 3 reference strains: Pseudomonas aeruginosa (PAO1), Bordetella bronchiseptica (9.73H+), and Inquilinus limosus (DSM16000), and 23 isolates recovered from patients suffering from cystic fibrosis, including one Achromobacter xylosoxidans isolate, and 22 isolates belonging to the Burkholderia cepacia complex. The later were selected because they presented resistance to a high number of antimicrobial compounds, among a panel of 125 clinical isolates previously analyzed for its resistance against 17 antimicrobial compounds (1,2). The antibiotic sensitivity studies were performed by applying two quantitative methods which allow to determine the minimum inhibitory concentration (MIC) and the minimum bactericidal concentration (MBC).
(§2) The compounds obtained in Examples 1 and 2 were assayed against 23 isolates recovered from the sputum of patients suffering from cystic fibrosis being treated at the Sor Maria Ludovica Children Hospital (La Plata, Buenos Aires, Argentina). Nineteen of these isolates were selected for being highly resistant to most of the antimicrobial agents of clinical use from a panel of 125 isolates previously characterized in Martina et al. (1). Reference strains were also included: Gram (+) bacteria: B. cereus and S. aureus, fermenting Gram (−) bacteria: E. coli, and non-fermenting Gram (−) bacteria: Inquilinus limosus (DSM16000), B. bronchiseptica, and Pseudomonas aeruginosa (PAO1). The antibiotic sensitivity studies were performed applying two quantitative methods which allow to determine the minimum inhibitory concentration (MIC) and the minimum bactericidal concentration (MBC) according to the criteria established by the Clinical and Laboratory Standards Institute (CLSI) (4). For comparative purposes, three antibiotics commonly used in the treatment of pulmonary infections in cystic fibrosis patients were included in the study: tobramycin, ceftazidime and meropenem.

[1] = system: Staphylococcus aureus (ATCC6538); test: MIC/MBC antibiotic sensitivity (CLSI); type: cell-based; conditions: for MBC / MIC: Staphylococcus aureus, S. aureus (ATCC6538); for MBC: read-out: MBC; for MIC: read-out: MIC; for Selectivity Index (SI): ratio IC50 (THP-I) / MIC against S. aureus
Outline: (§3)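 Two quantitative methods following CLSI criteria gave minimum inhibitory concentration (MIC) and minimum bactericidal concentration (MBC). Burkholderia isolates came from sputum of cystic fibrosis patients and were chosen for high resistance to clinically used antimicrobials; S. aureus is a Gram-positive reference strain.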

[2] = system: Burkholderia cenocepacia (CBC 033); test: MIC/MBC antibiotic sensitivity (CLSI); type: cell-based; conditions: for MBC: read-out: MBC
Outline: as §3

[3] = system: Burkholderia cenocepacia (CBC 036); test: MIC/MBC antibiotic sensitivity (CLSI); type: cell-based; conditions: for MBC: read-out: MBC
Outline: as §3

[4] = system: human monocyte cell line THP-I; test: Cytotoxicity assay, Trypan blue vital staining; type: cell-based; conditions: ratio IC50 / MIC, strain not stated
Description: (§4) For example, the MIC values for E. coli of the guanidine derivatives disclosed in patent application WO 2004073709 A1 are higher than 1 μg/ml. The guanidine derivatives disclosed by Hensler and colleagues (Hensler, M. E.; Bernstein, G.; Nizet, V.; Nefzi, A., Bioorganic & Medicinal Chemistry Letters 2006, 16, 5073-5079) have MIC values higher than 2.5 μg/ml against E. coli. […] In vitro cytotoxicity assays were performed using the human monocyte cell line THP-I and vital staining with Trypan Blue (3). The IC50 value was defined as the higher drug concentration at which 50% of cells are viable compared with the control. […] The Selectivity Index (SI), defined as the ratio between the IC50 and the MIC for each compound, was calculated. Compound H-BDF has an SI>10, which makes it a good antimicrobial candidate according to the criteria set up by Orme (5).
(§5) For assaying the cytotoxicity of the compounds obtained in Examples 1 and 2, cell viability by vital coloration exclusion with Trypan blue (3). The studies were performed using the monocyte cell line THP-I. The IC50 value was defined as the highest drug concentration at which 50% of the cells are viable as compared with the control.

[5] = Cytotoxicity assay, Trypan blue vital staining; type: cell-based, human; conditions: human, THP-I monocyte cells; THP-I cells, Trypan Blue; highest drug concentration at which 50% of cells are viable compared with control
Description: as §4, §5

[6] = system: Achromobacter xylosaxidans (HNA001); test: MIC/MBC antibiotic sensitivity (CLSI); type: cell-based, Achromobacter xylosoxidans
Description: as §1, §2

[7] = system: Burkholderia seminalis (CBC 040); conditions: reference (1); cited from earlier work
[8] = Burkholderia cenocepacia (CBC 033)
[9] = Burkholderia cenocepacia (CBC 033), read-out: MIC
[10] = Burkholderia cenocepacia (CBC 036)
[11] = Burkholderia cenocepacia (CBC 036), read-out: MIC
[12] = Achromobacter xylosaxidans (HNA001)
[13] = Achromobacter xylosaxidans (HNA001), read-out: MIC

SMILES | MBC (B. cenacepacia (FQC2524)) [µg/mL] | MIC (B. cenacepacia (FQC2524); read-out: MIC) [µg/mL] | melting point [°C] | MBC [1] [µg/mL] | MIC [1] [µg/mL] | Selectivity Index (SI) [1] | MBC [2, 8] [µg/mL] | MIC [2, 9] [µg/mL] | MBC [3, 10] [µg/mL] | MIC [3, 11] [µg/mL] | IC50 [5] [µg/mL] | MBC [6, 12] [µg/mL] | MIC [6, 13] [µg/mL] | further results
O=C(NC(=Nc1c(F)cc(F)cc1Br)Nc1c(F)cc(F)cc1Br)C12CC3CC(CC(C3)C1)C2 [H-BDF, N—(N,N′-bis(2-bromo-4,6-difluorophenyl)carbamimidoyl)adamantane-1-carboxamide] | 3.9 (≈ 6.46 µM) | 0.97 (≈ 1.61 µM) | 174 | 0.97 (≈ 1.61 µM) | 0.24 (≈ 0.398 µM) | 62 | 15.6 (≈ 25.9 µM) | 3.9 (≈ 6.46 µM) | 7.81 (≈ 12.9 µM) | 1.95 (≈ 3.23 µM) | 15.2 (≈ 25.3 µM) | < 0.48 | < 0.48 | Selectivity Index (SI) [4]: > 10
O=C(NC(=Nc1c(Br)cc(F)cc1Br)Nc1c(F)cc(F)cc1Br)C12CC3CC(CC(C3)C1)C2 [H-DBF, N—(N-(2-bromo-4,6-difluorophenyl)-N′-(2,6-dibromo-4-fluorophenyl)carbamimidoyl) adamantane-1-carboxamide] | 31.2 (≈ 47.1 µM) | 15.6 (≈ 23.5 µM) | 144 | 66.4 (≈ 100 µM) | 7.81 (≈ 11.8 µM) | 17 | > 133 | 133 (≈ 200 µM) | 132 (≈ 199 µM) | 66.4 (≈ 100 µM) | > 132 | 31.2 (≈ 47.1 µM) | 7.8 (≈ 11.7 µM) | 
C[C@@H](O)[C@H]1C(=O)N2C(C(=O)O)=C(S[C@@H]3CN[C@H](C(=O)N(C)C)C3)[C@H](C)[C@H]12 [Meropenem, meropenem] |  |  |  | < 0.48 | < 0.48 |  |  |  |  |  |  | 7.81 (≈ 20.4 µM) |  | MIC (B. cenacepacia (FQC2524); Meropenem, CLSI criteria, read-out: MIC (R/I/S category)): < 4 µg/mL; MIC ([2]; Burkholderia cenocepacia, Meropenem, CLSI criteria, B. cenocepacia (CBC 033), read-out: MIC (R/I/S category)): > 16 µg/mL; MIC ([3]; Burkholderia cenocepacia, Meropenem, CLSI criteria, B. cenocepacia (CBC 036), read-out: MIC (R/I/S category)): > 16 µg/mL; MIC ([6]; Achromobacter, Meropenem, CLSI criteria, A. xylosaxidans (HNA001), read-out: MIC (R/I/S category)): < 4 µg/mL; resistance of the strain to commercial antibiotics [7]: resistant
NC[C@H]1O[C@H](O[C@H]2[C@H](O)[C@@H](O[C@H]3O[C@H](CO)[C@@H](O)[C@H](N)[C@H]3O)[C@H](N)C[C@@H]2N)[C@H](N)C[C@@H]1O [Tobramucin, tobramycin] |  |  |  | 1.95 (≈ 4.17 µM) | 1.95 (≈ 4.17 µM) |  |  |  |  |  |  |  |  | MIC (B. cenacepacia (FQC2524); Tobramucin, CLSI criteria, read-out: MIC (R/I/S category)): > 16 µg/mL; MIC ([2]; Burkholderia cenocepacia, Tobramucin, CLSI criteria, B. cenocepacia (CBC 033), read-out: MIC (R/I/S category)): > 16 µg/mL; MIC ([3]; Burkholderia cenocepacia, Tobramucin, CLSI criteria, B. cenocepacia (CBC 036), read-out: MIC (R/I/S category)): > 16 µg/mL; MIC ([6]; Achromobacter, Tobramucin, CLSI criteria, A. xylosaxidans (HNA001), read-out: MIC (R/I/S category)): > 16 µg/mL
